Experimental data taken from PubChem BioAssay (NCI).
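Cells were grown in 96-well plates and exposed to each compound for 48 hours at five concentrations; endpoints were interpolated linearly between bracketing concentrations, or set to the highest concentration if not reached. The concentration for full growth arrest is given as TGI.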

Key:
Experiment in all cases: DTP human tumour cell line panel, 48 h
786-0 renal = test system: 786-0 renal
A498 renal = test system: A498 renal
A549 NSCLC = test system: A549 NSCLC
ACHN renal = test system: ACHN renal
CAKI-1 renal = test system: CAKI-1 renal
CCRF-CEM leukemia = test system: CCRF-CEM leukemia
COLO 205 colon = test system: COLO 205 colon
DU-145 prostate = test system: DU-145 prostate
EKVX NSCLC = test system: EKVX NSCLC
HCC-2998 colon = test system: HCC-2998 colon
HCT-116 colon = test system: HCT-116 colon
HCT-15 colon = test system: HCT-15 colon
HL-60(TB) leukemia = test system: HL-60(TB) leukemia
HOP-62 NSCLC = test system: HOP-62 NSCLC
HOP-92 NSCLC = test system: HOP-92 NSCLC
HS 578T breast = test system: HS 578T breast
HT29 colon = test system: HT29 colon
IGROV1 ovarian = test system: IGROV1 ovarian
K-562 leukemia = test system: K-562 leukemia
KM12 colon = test system: KM12 colon
LOX IMVI melanoma = test system: LOX IMVI melanoma
M14 melanoma = test system: M14 melanoma
MALME-3M melanoma = test system: MALME-3M melanoma
MCF7 breast = test system: MCF7 breast
MDA-MB-231 breast = test system: MDA-MB-231 breast
MDA-MB-435 = test system: MDA-MB-435
MDA-N = test system: MDA-N
MOLT-4 leukemia = test system: MOLT-4 leukemia
NCI-H226 lung = test system: NCI-H226 lung
NCI-H23 lung = test system: NCI-H23 lung
NCI-H460 lung = test system: NCI-H460 lung
NCI-H522 lung = test system: NCI-H522 lung
NCI/ADR-RES ovarian = test system: NCI/ADR-RES ovarian
OVCAR-3 ovarian = test system: OVCAR-3 ovarian
OVCAR-4 ovarian = test system: OVCAR-4 ovarian
OVCAR-8 ovarian = test system: OVCAR-8 ovarian
PC-3 prostate = test system: PC-3 prostate
RPMI-8226 leukemia = test system: RPMI-8226 leukemia
RXF 393 renal = test system: RXF 393 renal
SF-268 CNS = test system: SF-268 CNS
SF-295 CNS = test system: SF-295 CNS
SF-539 CNS = test system: SF-539 CNS
SK-MEL-2 melanoma = test system: SK-MEL-2 melanoma
SK-MEL-28 melanoma = test system: SK-MEL-28 melanoma
SK-MEL-5 melanoma = test system: SK-MEL-5 melanoma
SK-OV-3 ovarian = test system: SK-OV-3 ovarian
SN12C renal = test system: SN12C renal
SNB-19 CNS = test system: SNB-19 CNS
SNB-75 CNS = test system: SNB-75 CNS
SR leukemia = test system: SR leukemia
SW-620 colon = test system: SW-620 colon
T-47D breast = test system: T-47D breast
TK-10 renal = test system: TK-10 renal
U251 CNS = test system: U251 CNS
UACC-257 melanoma = test system: UACC-257 melanoma
UACC-62 melanoma = test system: UACC-62 melanoma
UO-31 renal = test system: UO-31 renal
BT-549 breast = test system: BT-549 breast
OVCAR-5 ovarian = test system: OVCAR-5 ovarian

Compound: O=[N+]([O-])c1ccc(N/N=C/CC(O)(C(F)(F)F)C(F)(F)F)c([N+](=O)[O-])c1
- TGI (786-0 renal): > 10 µM
- TGI (A498 renal): > 10 µM
- TGI (A549 NSCLC): > 10 µM
- TGI (ACHN renal): > 10 µM
- TGI (CAKI-1 renal): > 10 µM
- TGI (CCRF-CEM leukemia): > 10 µM
- TGI (COLO 205 colon): > 10 µM
- TGI (DU-145 prostate): > 10 µM
- TGI (EKVX NSCLC): > 10 µM
- TGI (HCC-2998 colon): > 10 µM
- TGI (HCT-116 colon): > 10 µM
- TGI (HCT-15 colon): > 10 µM
- TGI (HL-60(TB) leukemia): > 10 µM
- TGI (HOP-62 NSCLC): > 10 µM
- TGI (HOP-92 NSCLC): 6.59 µM
- TGI (HS 578T breast): 8.16 µM
- TGI (HT29 colon): > 10 µM
- TGI (IGROV1 ovarian): > 10 µM
- TGI (K-562 leukemia): > 10 µM
- TGI (KM12 colon): > 10 µM
- TGI (LOX IMVI melanoma): > 10 µM
- TGI (M14 melanoma): > 10 µM
- TGI (MALME-3M melanoma): > 10 µM
- TGI (MCF7 breast): > 10 µM
- TGI (MDA-MB-231 breast): > 10 µM
- TGI (MDA-MB-435): > 10 µM
- TGI (MDA-N): > 10 µM
- TGI (MOLT-4 leukemia): > 10 µM
- TGI (NCI-H226 lung): > 10 µM
- TGI (NCI-H23 lung): > 10 µM
- TGI (NCI-H460 lung): 8.35 µM
- TGI (NCI-H522 lung): > 10 µM
- TGI (NCI/ADR-RES ovarian): > 10 µM
- TGI (OVCAR-3 ovarian): 8.46 µM
- TGI (OVCAR-4 ovarian): > 10 µM
- TGI (OVCAR-8 ovarian): > 10 µM
- TGI (PC-3 prostate): > 10 µM
- TGI (RPMI-8226 leukemia): > 10 µM
- TGI (RXF 393 renal): > 10 µM
- TGI (SF-268 CNS): > 10 µM
- TGI (SF-295 CNS): > 10 µM
- TGI (SF-539 CNS): > 10 µM
- TGI (SK-MEL-2 melanoma): 6.64 µM
- TGI (SK-MEL-28 melanoma): > 10 µM
- TGI (SK-MEL-5 melanoma): > 10 µM
- TGI (SK-OV-3 ovarian): > 10 µM
- TGI (SN12C renal): > 10 µM
- TGI (SNB-19 CNS): > 10 µM
- TGI (SNB-75 CNS): > 10 µM
- TGI (SR leukemia): > 10 µM
- TGI (SW-620 colon): > 10 µM
- TGI (T-47D breast): > 10 µM
- TGI (TK-10 renal): > 10 µM
- TGI (U251 CNS): > 10 µM
- TGI (UACC-257 melanoma): > 10 µM
- TGI (UACC-62 melanoma): > 10 µM
- TGI (UO-31 renal): > 10 µM

Compound: CC(=O)OC1C(C)OC(OC(=O)C2CCC3C(C2)OC2(CC(OC(=O)/C=C/c4ccccc4)C(C)CO2)C32CO2)C(OC2OC(C)C(O)C(OC(C)=O)C2O)C1O (configuration not stated)
- TGI (A498 renal): 0.286 µM
- TGI (ACHN renal): 1.19 µM
- TGI (BT-549 breast): < 0.0335 µM
- TGI (COLO 205 colon): > 100 µM
- TGI (DU-145 prostate): 0.0213 µM
- TGI (EKVX NSCLC): 1.27 µM
- TGI (HCC-2998 colon): < 0.01 µM
- TGI (HCT-15 colon): 5.8 µM
- TGI (HOP-62 NSCLC): > 100 µM
- TGI (HS 578T breast): < 0.01 µM
- TGI (HT29 colon): < 0.01 µM
- TGI (IGROV1 ovarian): < 0.01 µM
- TGI (K-562 leukemia): > 100 µM
- TGI (KM12 colon): < 0.0123 µM
- TGI (LOX IMVI melanoma): < 0.01 µM
- TGI (M14 melanoma): 0.104 µM
- TGI (MALME-3M melanoma): < 0.01 µM
- TGI (MCF7 breast): > 100 µM
- TGI (MDA-MB-435): < 0.01 µM
- TGI (MDA-N): < 0.01 µM
- TGI (MOLT-4 leukemia): < 0.01 µM
- TGI (NCI-H226 lung): < 0.01 µM
- TGI (NCI-H23 lung): < 0.01 µM
- TGI (NCI-H460 lung): < 0.0125 µM
- TGI (OVCAR-5 ovarian): 0.0407 µM
- TGI (PC-3 prostate): 0.0402 µM
- TGI (RPMI-8226 leukemia): < 0.01 µM
- TGI (RXF 393 renal): < 0.0434 µM
- TGI (SF-268 CNS): < 0.0136 µM
- TGI (SF-295 CNS): < 0.0304 µM
- TGI (SK-MEL-2 melanoma): < 0.01 µM
- TGI (SK-MEL-5 melanoma): 0.165 µM
- TGI (SK-OV-3 ovarian): > 100 µM
- TGI (SN12C renal): < 0.01 µM
- TGI (SNB-75 CNS): < 0.01 µM
- TGI (TK-10 renal): > 100 µM
- TGI (U251 CNS): < 0.01 µM
- TGI (UACC-257 melanoma): < 0.0137 µM
- TGI (UACC-62 melanoma): < 0.01 µM
- TGI (UO-31 renal): 2.96 µM
